Laboratory results as given in the supplement of paper PMC10627819.

Experiments:
Assay in all cases: fitness (endpoint OD595 vs no drug) (fraction); higher = more growth
[1] = system: S. pneumoniae D39V
Summary of the method: (§1)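 Cultures at OD595 0.01 were dispensed into 384-well plates in TSB, LB Lennox or CY and incubated at 37 °C. Every 30 min for 14 h, OD595 was read and corrected by the first reading. Fitness is the optical density at entry into stationary phase relative to the robust mean of no-drug control wells, capped at 1.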

[2] = system: S. aureus Newman
Summary of the method: as §1

[3] = system: B. subtilis 168
Summary of the method: as §1

C[C@@H](O)[C@H]1C(=O)N2C(C(=O)O)=C(SCCNC=N)C[C@H]12 [Imipenem] + CC1=C(C(=O)O)N2C(=O)[C@@H](NC(=O)[C@H](N)c3ccccc3)[C@H]2SC1 [Cephalexin]
fitness, [1], one replicate
Conditions | first compound 0.005 µg/mL | first compound 0.01 µg/mL | first compound 0.02 µg/mL
partner 0.125 µg/mL | 0.899 | 0.909 | 0.942
partner 0.25 µg/mL | 0.874 | 0.946 | 0.938
partner 0.5 µg/mL | 0.943 | 0.978 | 0.95

fitness, [1]
Conditions | first compound 0.0065 µg/mL | first compound 0.013 µg/mL | first compound 0.026 µg/mL
partner 1 µg/mL | 0.278 | 0.4 | 0.176
partner 2 µg/mL | 0.0001 | 0.0222 | 0.0128
partner 4 µg/mL | 0.0361 | 0.0148 | 0.0072

CC[C@H]1OC(=O)[C@H](C)[C@@H](O[C@H]2C[C@@](C)(OC)[C@@H](O)[C@H](C)O2)[C@H](C)[C@@H](O[C@@H]2O[C@H](C)C[C@H](N(C)C)[C@H]2O)[C@](C)(OC)C[C@@H](C)C(=O)[C@H](C)[C@@H](O)[C@]1(C)O [Clarithromycin] + CN(C)[C@@H]1C(O)=C(C(N)=O)C(=O)[C@@]2(O)C(O)=C3C(=O)c4c(O)ccc(Cl)c4[C@@](C)(O)[C@H]3C[C@@H]12 [Chlortetracycline]
fitness, [1], one replicate
Conditions | first compound 0.007812 µg/mL | first compound 0.01562 µg/mL | first compound 0.03125 µg/mL
partner 0.012 µg/mL | 0.693 | 0.688 | 0.542
partner 0.024 µg/mL | 0.844 | 0.654 | 0.455
partner 0.048 µg/mL | 0.693 | 0.519 | 0.244

fitness, [1]
Conditions | first compound 0.0625 µg/mL | first compound 0.07 µg/mL | first compound 0.125 µg/mL | first compound 0.14 µg/mL | first compound 0.25 µg/mL | first compound 0.28 µg/mL
partner 0.012 µg/mL | – | 0.0902 | – | 0.14 | – | 0.093
partner 0.024 µg/mL | – | 0.121 | – | 0.122 | – | 0.0945
partner 0.048 µg/mL | – | 0.123 | – | 0.132 | – | 0.118
partner 0.375 µg/mL | 0.0643 | – | 0.0595 | – | 0.0683 | –
partner 0.75 µg/mL | 0.0438 | – | 0.0485 | – | 0.0679 | –
partner 1.5 µg/mL | 0.0386 | – | 0.0516 | – | 0.0374 | –

O=C(N[C@H](CO)[C@H](O)c1ccc([N+](=O)[O-])cc1)C(Cl)Cl [Chloramphenicol] + CC1=C(C(=O)O)N2C(=O)[C@@H](NC(=O)[C@H](N)c3ccccc3)[C@H]2SC1 [Cephalexin]
fitness, [2]
Conditions | partner 0.25 µg/mL | partner 0.5 µg/mL | partner 1 µg/mL
first compound 0.75 µg/mL | 0.792 | 0.891 | 0.908
first compound 3 µg/mL | – | 0.312 | –

CC[C@H]1OC(=O)[C@H](C)[C@@H](O[C@H]2C[C@@](C)(OC)[C@@H](O)[C@H](C)O2)[C@H](C)[C@@H](O[C@@H]2O[C@H](C)C[C@H](N(C)C)[C@H]2O)[C@](C)(OC)C[C@@H](C)C(=O)[C@H](C)[C@@H](O)[C@]1(C)O [Clarithromycin] + CC1=C(C(=O)O)N2C(=O)[C@@H](NC(=O)[C@H](N)c3ccccc3)[C@H]2SC1 [Cephalexin]
fitness, [1], one replicate
Conditions | first compound 0.007812 µg/mL | first compound 0.01562 µg/mL | first compound 0.03125 µg/mL | first compound 0.0625 µg/mL | first compound 0.125 µg/mL | first compound 0.25 µg/mL
partner 0.125 µg/mL | – | – | – | 0.701 | 0.33 | 0.138
partner 0.25 µg/mL | – | – | – | 0.723 | 0.381 | 0.174
partner 0.5 µg/mL | – | – | – | 0.777 | 0.4 | 0.163
partner 1 µg/mL | 0.314 | 0.417 | 0.236 | – | – | –
partner 2 µg/mL | 0.028 | 0.0414 | 0.0229 | – | – | –
partner 4 µg/mL | 0.0398 | 0.0811 | 0.0306 | – | – | –

fitness, [1]
Conditions | first compound 0.07 µg/mL | first compound 0.14 µg/mL | first compound 0.28 µg/mL
partner 1 µg/mL | 0.0665 | 0.0755 | 0.0377
partner 2 µg/mL | 0.0399 | 0.0839 | 0.0276
partner 4 µg/mL | 0.0364 | 0.0743 | 0.0463

N[C@@H]1CONC1=O [Cycloserine D] + C[C@H]1COc2c(N3CCN(C)CC3)c(F)cc3c(=O)c(C(=O)O)cn1c23 [Levofloxacin]
fitness, [3], one replicate
Conditions | first compound 0.125 µg/mL | first compound 0.25 µg/mL | first compound 0.5 µg/mL
partner 0.001 µg/mL | 0.979 | 0.973 | 0.987
partner 0.0078 µg/mL | 0.898 | 0.863 | 0.968

fitness, [3]
Conditions | partner 0.002 µg/mL | partner 0.0039 µg/mL | partner 0.0312 µg/mL | partner 0.0625 µg/mL | partner 0.125 µg/mL
first compound 0.125 µg/mL | 0.93 | 0.92 | 0.0375 | 0.0466 | 0.0546
first compound 0.25 µg/mL | 0.921 | 0.902 | 0.0356 | 0.0536 | 0.0482
first compound 0.5 µg/mL | 0.965 | 0.995 | 0.0328 | 0.0466 | 0.0559

O=C1CN(/N=C/c2ccc([N+](=O)[O-])o2)C(=O)N1 [Nitrofurantoin] + CCC(C)C1C(=O)NC(=C)C(=O)NC(C(=O)NC(CSCC(C(=O)N1)NC(=O)/C(=C/C)/NC(=O)C(C(C)CC)N)C(=O)NC2C(SCC(NC(=O)CNC(=O)C3CCCN3C2=O)C(=O)NC(CCCCN)C(=O)NC4C(SCC(NC(=O)CNC(=O)C(NC(=O)C(NC(=O)C(NC(=O)CNC4=O)C)CC(C)C)CCSC)C(=O)NC(CC(=O)N)C(=O)NC(CCSC)C(=O)NC(CCCCN)C(=O)NC5C(SCC6C(=O)NC(C(=O)NC(CSC(C(C(=O)N6)NC(=O)C(NC5=O)C)C)C(=O)NC(CO)C(=O)NC(C(C)CC)C(=O)NC(CC7=CN=CN7)C(=O)NC(C(C)C)C(=O)NC(=C)C(=O)NC(CCCCN)C(=O)O)CC8=CN=CN8)C)C)C)CC(C)C [Nisin]
[1], main component drawn
Conditions | fitness
first compound 1.285 µg/mL, partner 1.6 µg/mL | 0.0025
first compound 1.285 µg/mL, partner 3.2 µg/mL | 0.0467
first compound 1.285 µg/mL, partner 6.4 µg/mL | 0.0134
first compound 2 µg/mL, partner 0.4275 µg/mL | 0.988
first compound 2 µg/mL, partner 0.855 µg/mL | 0.991
first compound 2 µg/mL, partner 1.71 µg/mL | 0.075
first compound 2.57 µg/mL, partner 1.6 µg/mL | 0.0197
first compound 2.57 µg/mL, partner 3.2 µg/mL | 0.0583
first compound 2.57 µg/mL, partner 6.4 µg/mL | 0.0339
first compound 4 µg/mL, partner 0.4275 µg/mL | 0.971
first compound 4 µg/mL, partner 0.855 µg/mL | 0.993
first compound 4 µg/mL, partner 1.71 µg/mL | 0.0559
first compound 8 µg/mL, partner 0.4275 µg/mL | 0.85
first compound 8 µg/mL, partner 1.71 µg/mL | 0.0537

[1], first compound 5.14 µg/mL, one replicate, main component drawn
Conditions | fitness
partner 1.6 µg/mL | 0.0172
partner 3.2 µg/mL | 0.0456
partner 6.4 µg/mL | 0.0152

CC[C@H]1OC(=O)[C@H](C)[C@@H](O[C@H]2C[C@@](C)(OC)[C@@H](O)[C@H](C)O2)[C@H](C)[C@@H](O[C@@H]2O[C@H](C)C[C@H](N(C)C)[C@H]2O)[C@](C)(OC)C[C@@H](C)C(=O)[C@H](C)[C@@H](O)[C@]1(C)O [Clarithromycin] + CO/N=C(\C(=O)N[C@@H]1C(=O)N2C(C(=O)[O-])=C(C[N+]3(C)CCCC3)CS[C@H]12)c1csc(N)n1 [Cefepime]
fitness, [1], one replicate
Conditions | first compound 0.007812 µg/mL | first compound 0.01562 µg/mL | first compound 0.03125 µg/mL
partner 0.0078 µg/mL | 0.887 | 0.866 | 0.673
partner 0.0155 µg/mL | 0.884 | 0.834 | 0.635
partner 0.031 µg/mL | 0.456 | 0.491 | 0.456

fitness, [1]
Conditions | first compound 0.0625 µg/mL | first compound 0.07 µg/mL | first compound 0.125 µg/mL | first compound 0.14 µg/mL | first compound 0.25 µg/mL | first compound 0.28 µg/mL
partner 0.007 µg/mL | 0.67 | – | 0.43 | – | 0.165 | –
partner 0.0078 µg/mL | – | 0.187 | – | 0.0821 | – | 0.103
partner 0.014 µg/mL | 0.675 | – | 0.458 | – | 0.181 | –
partner 0.0155 µg/mL | – | 0.168 | – | 0.105 | – | 0.108
partner 0.028 µg/mL | 0.611 | – | 0.358 | – | 0.136 | –
partner 0.031 µg/mL | – | 0.0769 | – | 0.102 | – | 0.091

C/C(=C\C(=O)OCCCCCCCCC(=O)O)C[C@@H]1OC[C@H](C[C@@H]2O[C@H]2[C@@H](C)[C@H](C)O)[C@@H](O)[C@H]1O [Pseudomonic acid] + CCC(C)C1C(=O)NC(=C)C(=O)NC(C(=O)NC(CSCC(C(=O)N1)NC(=O)/C(=C/C)/NC(=O)C(C(C)CC)N)C(=O)NC2C(SCC(NC(=O)CNC(=O)C3CCCN3C2=O)C(=O)NC(CCCCN)C(=O)NC4C(SCC(NC(=O)CNC(=O)C(NC(=O)C(NC(=O)C(NC(=O)CNC4=O)C)CC(C)C)CCSC)C(=O)NC(CC(=O)N)C(=O)NC(CCSC)C(=O)NC(CCCCN)C(=O)NC5C(SCC6C(=O)NC(C(=O)NC(CSC(C(C(=O)N6)NC(=O)C(NC5=O)C)C)C(=O)NC(CO)C(=O)NC(C(C)CC)C(=O)NC(CC7=CN=CN7)C(=O)NC(C(C)C)C(=O)NC(=C)C(=O)NC(CCCCN)C(=O)O)CC8=CN=CN8)C)C)C)CC(C)C [Nisin]
fitness, [1], main component drawn
Conditions | partner 0.4275 µg/mL | partner 0.855 µg/mL | partner 1.6 µg/mL | partner 1.71 µg/mL | partner 3.2 µg/mL | partner 6.4 µg/mL
first compound 0.03 µg/mL | 0.935 | 0.928 | – | 0.0945 | 0.0435 | 0.0142
first compound 0.06 µg/mL | 0.858 | 0.81 | – | 0.0658 | 0.0566 | 0.0188
first compound 0.12 µg/mL | 0.51 | 0.21 | 0.174 | 0.0732 | 0.0384 | 0.0513

N[C@@H]1CONC1=O [Cycloserine D] + CN(C)C(=O)C(CCN1CCC(O)(c2ccc(Cl)cc2)CC1)(c1ccccc1)c1ccccc1 [Loperamide]
fitness, [3]
Conditions | first compound 0.125 µg/mL | first compound 0.25 µg/mL | first compound 0.5 µg/mL
partner 50 µg/mL | 0.0169 | 0.0651 | 0.0491
partner 100 µg/mL | 0.0259 | 0.0243 | 0.0094

N[C@@H]1CONC1=O [Cycloserine D] + CO[C@@H]1[C@@H](OC(N)=O)[C@@H](O)[C@H](Oc2ccc3c(O)c(NC(=O)c4ccc(O)c(CC=C(C)C)c4)c(=O)oc3c2C)OC1(C)C [Novobiocin]
fitness, [3]
Conditions | first compound 0.125 µg/mL | first compound 0.25 µg/mL | first compound 0.5 µg/mL
partner 0.0125 µg/mL | 0.987 | 0.943 | 0.922
partner 0.025 µg/mL | 0.957 | 0.957 | 0.913
partner 0.05 µg/mL | ≥ 1 | 0.994 | 0.992

fitness, [3], one replicate
Conditions | partner 0.1 µg/mL | partner 0.125 µg/mL | partner 0.2 µg/mL | partner 0.25 µg/mL | partner 0.5 µg/mL
first compound 0.125 µg/mL | 0.906 | 0.871 | 0.921 | 0.908 | 0.605
first compound 0.25 µg/mL | 0.995 | 0.962 | ≥ 1 | 0.852 | 0.632
first compound 0.5 µg/mL | ≥ 1 | 0.967 | 0.952 | 0.958 | 0.544
